In the METLIN SMRT retention time set (Domingo-Almenara et al. 2019):

Test: gradient 5% acetonitrile 3 min, to 50% in 2 min, to 85% in 15 min, held 3 min, 100 µL/min
Settings: column: Zorbax Extend-C18 2.1 x 50 mm; eluents: water / acetonitrile, 0.1% formic acid
Outline: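 A Zorbax Extend-C18 column (2.1 × 50 mm, 1.8 μm) run at 100 μL/min with water and acetonitrile, both containing 0.1% formic acid, separated mixtures of ~100 pure standards. The HPLC was coupled to a quadrupole time-of-flight mass spectrometer operated in positive and negative ionization mode, with dead and dwell volumes of 40 μL and 900 μL. Each retention time was taken from a computationally picked adduct peak that was then manually inspected.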

## O=c1ccc(N2CCC(NS(=O)(=O)c3ccc(Cl)s3)CC2)nn1CC1CC1
  RP-LC retention time: 875 s

## O=C(NC1CCCC1)c1cc(C2CC2)[nH]n1
  RP-LC retention time: 692 s

## CCC(C)NC(=O)C1CCN(S(=O)(=O)c2c(C)[nH]c(C)c2C(=O)N2CCCCC2)CC1 (stereo not given)
  RP-LC retention time: 672 s

## Cc1ccc(NC(=O)CN2C(=O)C3CCCCN3c3ccc(S(=O)(=O)N(C)C)cc32)cc1 (stereo not given)
  RP-LC retention time: 943 s

## Cc1ccc(S(=O)(=O)Nc2ccc(Cn3cncn3)cc2)cc1Cl
  RP-LC retention time: 760 s

## Cc1ccc(C)c(NC(=O)C2CCCN(c3nc4c(s3)c(C)nn4-c3ccccc3)C2)c1 (stereo not given)
  RP-LC retention time: 1220 s

## CCC(C)(C)NS(=O)(=O)c1cccc(-c2nc(-c3ccccc3)no2)c1
  RP-LC retention time: 1230 s

## O=C1NCCCCCN(Cc2ccc(F)cc2F)[C@H]2CCC[C@@H]12
  RP-LC retention time: 623 s

## O=C(C1=CN(c2ccc3c(c2)OCO3)c2ccccc2S1(=O)=O)N1CCOCC1
  RP-LC retention time: 717 s

## O=C(NCCCN1CCCC1=O)c1cccc2c1CCN2C(=O)Nc1ccc(F)cc1
  RP-LC retention time: 680 s

## CCn1c(=O)c(N2CCN(C(=O)Nc3ccc(F)cc3F)CC2)nc2ccccc21
  RP-LC retention time: 895 s

## Cc1ccc(NC(=O)N2CCc3c(c(-c4nc(C5CC5)no4)nn3C)C2)cc1
  RP-LC retention time: 867 s

## Cc1cc(-c2nnc(-c3ccc(F)cc3)o2)c(C)n1CC(=O)Nc1ccc2c(c1)OCCO2
  RP-LC retention time: 916 s

## Cc1cccc(NC(=O)Cn2ccc3ccn(C)c3c2=O)c1
  RP-LC retention time: 772 s

## CCn1nccc1-c1cccc(-c2noc(-c3ccc(C)s3)n2)c1
  RP-LC retention time: 1250 s

## Cc1ccc(-c2cc(C(F)(F)F)on2)cc1S(=O)(=O)N1CCCCC1C (stereo not given)
  RP-LC retention time: 852 s

## O=C(Nc1ccc(F)c(F)c1)C1CCN(c2cc(N3CCSCC3)ncn2)CC1
  RP-LC retention time: 709 s

## COc1ccc(NC(=O)NC2CCN(c3cc(N4CCCC4)cnn3)C2)cc1F (stereo not given)
  RP-LC retention time: 625 s

## CCCn1cc2c3c(cccc31)CN(C(=O)COc1ccc(F)cc1)CC2
  RP-LC retention time: 1030 s

## CCOc1cc(=O)n2c(c1C(=O)OCc1cccc(F)c1)CCCC2
  RP-LC retention time: 900 s

## Cc1noc(CNC(=O)C2CCN(C(=O)c3csc(-c4ccccc4)n3)CC2)n1
  RP-LC retention time: 650 s

## CCOc1ccc(NC(=O)C2CCN(S(=O)(=O)c3ccc4c(c3)sc(=O)n4CC)CC2)cc1
  RP-LC retention time: 924 s

## COc1ccccc1CC(=O)Nc1ccc2c(c1)Sc1ncccc1C(=O)N2C(C)C
  RP-LC retention time: 855 s

## CCOC(=O)c1c(S(=O)(=O)N2CCC(C(=O)NC3CCCC3)CC2)c(C)n(C)c1C
  RP-LC retention time: 766 s

## O=C(NC1CCCCCC1)C1CC(=O)N(CCc2c[nH]c3ccc(Cl)cc23)C1 (stereo not given)
  RP-LC retention time: 871 s

## O=S(=O)(CCCOc1ccc(F)cc1)NC1CC1
  RP-LC retention time: 785 s

## Cc1cccc(N2CCN(c3cc(C)nc4c5c(C)cc(C)nc5nn34)CC2)n1
  RP-LC retention time: 561 s

## CCc1nc2cc(-c3noc(-c4sccc4C)n3)ccc2o1
  RP-LC retention time: 1210 s

## Cn1cc(-c2ccncc2)cc1C(=O)NCc1ccccc1Br
  RP-LC retention time: 655 s

## COc1nn(C)cc1-c1nnc(SCC(=O)NCc2ccc(F)cc2)n1C
  RP-LC retention time: 594 s

## CCCNC(=O)Cn1cc(C(=O)Nc2cc(C)cc(C)c2)c(=O)c2ccc(C)nc21
  RP-LC retention time: 982 s

## CCOc1ccc(-c2cc(=O)n(CCCC(=O)Nc3ccc4sc(C)nc4c3)cn2)cc1
  RP-LC retention time: 721 s

## Cn1nc2n(c1=O)CCC(NS(=O)(=O)c1cccc3cccnc13)CC2 (stereo not given)
  RP-LC retention time: 648 s

## O=C(Nc1cccn2ncnc12)c1ccc(Cl)s1
  RP-LC retention time: 820 s

## CCOC(=O)N1CCN(C(=O)Nc2nc(CC(=O)NC3CCCCCC3)cs2)CC1
  RP-LC retention time: 704 s

## Cc1ccc(-c2nnc(-c3ccc(-n4ccnc4)nc3)o2)cc1F
  RP-LC retention time: 716 s

## CCn1cc(-c2nc(-c3ccc(OC)cc3OC)no2)c(=O)c2cc(F)ccc21
  RP-LC retention time: 830 s

## COc1ccccc1C1NC(=O)NC(C)=C1C(=O)OC1CCCC1C (stereo not given)
  RP-LC retention time: 924 s

## CC(C)Oc1ccc(CNC(=O)c2nnc(-c3ccc(S(=O)(=O)N4CCOCC4)cc3)o2)cc1
  RP-LC retention time: 915 s

## COC(=O)c1ccccc1NC(=O)N(Cc1cc(=O)[nH]c2ccccc12)CC(C)C
  RP-LC retention time: 943 s

## CC(C)c1c(C(=O)O)nnn1Cc1ccc(Cl)cc1
  RP-LC retention time: 788 s

## CC1CCCN(c2nn(CC(=O)Nc3ccc(C(F)(F)F)cc3)c(=O)c3ccccc23)C1 (stereo not given)
  RP-LC retention time: 1170 s

## O=C(NCc1ccccc1C(F)(F)F)C1CCCN(c2ncnc3c2oc2ccccc23)C1 (stereo not given)
  RP-LC retention time: 861 s

## Clc1ccccc1Cc1nc(-c2ccc(OC3CCNC3)cc2)no1 (stereo not given)
  RP-LC retention time: 704 s

## CCNC(=O)c1cc(N(C)C)nc2ccccc12
  RP-LC retention time: 567 s

## O=C(Nc1cccc(F)c1)C1CCN(C(=O)c2ncn3c2COC(c2ccc(F)cc2)C3)CC1 (stereo not given)
  RP-LC retention time: 832 s

## Cc1ccc2c(Nc3ccc(F)cc3)c(C(=O)N3CCCC3)cnc2n1
  RP-LC retention time: 594 s

## COc1ccc(-c2noc(C3CCCN3C(=O)c3cc4ccccc4[nH]3)n2)cc1OC (stereo not given)
  RP-LC retention time: 971 s

## Cc1ccc(-c2cc3c4nnc(SCC(=O)Nc5ccc(F)cc5Cl)n4ccn3n2)cc1C
  RP-LC retention time: 1010 s

## O=C1CC(C(F)(F)F)c2c(c(C(=O)O)cn2-c2ccccc2Cl)N1 (stereo not given)
  RP-LC retention time: 737 s

## CCn1ccc(C(=O)N2CCCn3cc(-c4cccc(C#N)c4)nc32)n1
  RP-LC retention time: 639 s

## O=C(NCCc1ccccc1)C1CCCN(C(=O)Cc2cccc3ccccc23)C1 (stereo not given)
  RP-LC retention time: 906 s

## O=C(COc1ccccc1F)NCC(O)(c1ccccc1)C(F)(F)F (stereo not given)
  RP-LC retention time: 860 s

## CCCCN(CCCC)c1nc(-c2ccncc2)nc2ccccc12
  RP-LC retention time: 992 s

## O=C(c1ccc(Br)o1)N1CCc2nc(-c3ccc(Cl)cc3)ncc2C1
  RP-LC retention time: 1100 s

## Cc1cc(-c2nnc(-c3ccccc3)o2)c(C)n1CC(=O)N1CCN(C2CCCCC2)CC1
  RP-LC retention time: 666 s

## CCNC(=O)C1CCN(S(C)(=O)=O)c2cc(Cl)ccc2O1 (stereo not given)
  RP-LC retention time: 736 s

## Cc1noc(C)c1CC(=O)NCCn1ncc2c(=O)n(Cc3ccc(F)cc3)cnc21
  RP-LC retention time: 640 s

## COC(=O)c1ncoc1-c1ccccc1C(=O)NC1CCCC1
  RP-LC retention time: 699 s

## O=C(O)c1cccc2c1CCN2S(=O)(=O)c1ccccc1
  RP-LC retention time: 793 s

## COc1nccnc1NC1CCN(C(=O)c2ccc(C#N)cc2)CC1
  RP-LC retention time: 804 s

## COc1ccccc1N1CCN(CCCNc2cc(=O)n(C)c(=O)n2C)CC1
  RP-LC retention time: 637 s

## COCCCNC(=O)CCc1c(-c2ccc(F)cc2)nc2ccccn12
  RP-LC retention time: 592 s

## COCC(=O)N(C1CCOCC1)C1CCN(S(=O)(=O)c2ccc(F)cc2)CC1
  RP-LC retention time: 749 s

## COc1cc(-c2nc3ccc(Cl)cn3c2Nc2ccc3c(c2)OCCO3)ccc1O
  RP-LC retention time: 680 s

## Cc1nn(C(=O)CCc2ccccc2)c(C)c1S(=O)(=O)N1CCCC1
  RP-LC retention time: 1180 s

## Cc1nc(Nc2ncc3c(n2)CCCC3=O)nc2c(C)cccc12
  RP-LC retention time: 620 s

## COc1ccc(N2CCN(C(=O)C3CC(=O)N(c4ccc5oc(C)nc5c4)C3)CC2)cc1 (stereo not given)
  RP-LC retention time: 678 s

## C=CCN1CC(c2nc3ccccc3n2CC(O)COc2cc(C)ccc2C)CC1=O (stereo not given)
  RP-LC retention time: 664 s

## CCN1CCN(C(=O)Cc2c(C)nc3nc(-c4ccccc4)nn3c2C)CC1
  RP-LC retention time: 589 s

## COc1ccc(Cl)cc1NC(=O)NCC(c1cccnc1)c1cn(C)c2ccccc12 (stereo not given)
  RP-LC retention time: 785 s

## CC(C)c1cccc(NC(=O)Cn2nc3n(c2=O)CCCCC3)c1
  RP-LC retention time: 700 s

## Cc1cc(C2CCCN2C(=O)Cc2c(F)cccc2Cl)no1 (stereo not given)
  RP-LC retention time: 829 s

## CC(=O)N1CCN(c2nc3c(s2)CC(C(=O)N2CCC(C)CC2)CC3)CC1 (stereo not given)
  RP-LC retention time: 537 s

## Cc1noc(C)c1-c1ccc(S(=O)(=O)Nc2ccc(F)c(F)c2)cc1
  RP-LC retention time: 939 s

## CCOc1ccc(CC(=O)N2CCCC2c2c(C)noc2C)cc1 (stereo not given)
  RP-LC retention time: 902 s

## Cc1ccccc1-c1csc(Nc2ccc(Br)cn2)n1
  RP-LC retention time: 1230 s

## NC(=O)c1ccsc1NC(=O)c1c[nH]c2ccccc12
  RP-LC retention time: 673 s

## COC(=O)c1ccccc1NC(=O)CSc1cc(N2CCN(c3ccccc3OC)CC2)ncn1
  RP-LC retention time: 905 s

## Cc1nc(-c2csc(S(=O)(=O)N3CCC(C(=O)NCCC(C)C)CC3)c2)no1
  RP-LC retention time: 868 s

## COc1cc(C)c(Sc2cnc(NC(=O)c3ccc(CNC(C)C(C)(C)C)cc3)s2)cc1C(=O)N1CCN(C(C)=O)CC1 (stereo not given)
  RP-LC retention time: 762 s

## CCc1cccc(NC(=O)Cn2nc3c(Sc4ccccc4)nccn3c2=O)c1
  RP-LC retention time: 1010 s

## O=C(O)Cc1sc(-c2ccccc2)nc1-c1ccc(Cl)cc1
  RP-LC retention time: 1140 s

## CC(C)Cn1cc(S(=O)(=O)Nc2cccc(F)c2)c2cccnc21
  RP-LC retention time: 912 s

## Cc1nnc(-c2cn(CC(=O)NCCC3=CCCCC3)c3ccccc23)o1
  RP-LC retention time: 803 s

## Cc1ccc(-c2[nH]ncc2CN2CCC3(CC2)CC(O)CCO3)cc1 (stereo not given)
  RP-LC retention time: 588 s

## Cc1cccc(CNC(=O)CN2CCN(Cc3ccccc3)C2=O)c1
  RP-LC retention time: 808 s

## Cc1ccc2c(Nc3ccc(C)c(C)c3)c(C(=O)N3CCCCC3C)cnc2n1 (stereo not given)
  RP-LC retention time: 672 s

## CC(C)NC(=O)c1ccc(OCC2CCCN(C(=O)C(C)C)C2)cc1 (stereo not given)
  RP-LC retention time: 787 s

## COc1ccc(S(=O)(=O)N2CCCC(C(=O)Nc3c(F)cccc3F)C2)cc1OC (stereo not given)
  RP-LC retention time: 818 s
